Data taken from the NIST ThermoML archive (doi:10.1007/s10765-011-0948-4).
“And” between values parts separate entries of the source, which are not always exact repeats. Equal values may be shown once. ± gives the expanded uncertainty stated by the source.

Columns and labels:
[1] = for thermal pressure coefficient: barogram technique
[2] = molar heat capacity at constant volume; details: High-temperature High-pressure adiabatci calorimeter

CCOCC [diethyl ether]
Details | Critical density, [1] [kg/m3] | Critical temperature, [1] [K] | molar heat capacity at constant volume, [2] | thermal pressure coefficient, [1] | vapor or sublimation pressure, [1]
416.1 K, Liquid | – | – | 156.77 ± 4.7 J/K/mol | 272 ± 4.1 kPa/K | 1599 ± 48 kPa
425.19 K, Liquid | – | – | 159.36 ± 4.8 J/K/mol | 238 ± 3.6 kPa/K | 1906 ± 57 kPa
437.14 K, Liquid | – | – | 163.81 ± 4.9 J/K/mol | 198 ± 3 kPa/K | 2280 ± 68 kPa
450.6 K, Liquid | – | – | 170.26 ± 5.1 J/K/mol | 148 ± 2.2 kPa/K | 2931 ± 88 kPa
450.77 K, Liquid | – | – | 171.96 ± 5.2 J/K/mol | 148 ± 2.2 kPa/K | 2933 ± 88 kPa
459.61 K, Liquid | – | – | 178.63 ± 5.3 J/K/mol | 106 ± 1.6 kPa/K | 3315 ± 99 kPa
464.79 K, Liquid | – | – | 190.49 ± 5.7 J/K/mol | 81.8 ± 1.2 kPa/K | 3580 ± 110 kPa
466.12 K, Gas | – | – | 190.12 ± 5.7 J/K/mol | 52.3 ± 0.8 kPa/K | –
466.47 K, Liquid | – | – | 203.83 ± 6.2 J/K/mol | 68 ± 1 kPa/K | 3612 ± 110 kPa
466.66 K, Gas | – | – | 208.5 ± 6.3 J/K/mol | 54.3 ± 0.8 kPa/K | –
466.75 K, Liquid | – | – | 210.65 ± 6.3 J/K/mol | 64.5 ± 1 kPa/K | 3601 ± 110 kPa
466.8 K, Liquid | – | – | 218.66 ± 6.6 J/K/mol | 61 ± 1 kPa/K | 3583 ± 110 kPa
466.81 K, Liquid | – | – | 233.48 ± 7.1 J/K/mol and 245.64 ± 7.6 J/K/mol | 59.7 kPa/K and 59.2 kPa/K | 3608 ± 110 kPa and 3576 ± 110 kPa
466.82 K, Gas | – | – | 234.97 ± 7.4 J/K/mol | 55.9 ± 0.9 kPa/K | –
466.83 K, Gas | – | – | 248.6 ± 8.2 J/K/mol | 56.1 ± 0.9 kPa/K | –
466.85 K, Gas | – | – | 264.24 ± 9.1 J/K/mol | 55.9 ± 0.9 kPa/K | –
Liquid, quasi-satatic thermogram technique | 265.1 ± 2 | – | – | – | –
Liquid, quasi-static thermogram technique | – | 466.85 ± 0.2 | – | – | –

[1]
Details | mass density
416.1 K, Liquid, Constant volume piezo-calorimeter | 534.6 ± 0.3 kg/m3
425.19 K, Liquid, Constant volume piezo-calorimeter | 517.3 ± 0.3 kg/m3
437.14 K, Liquid, Constant volume piezo-calorimeter | 485.2 ± 0.3 kg/m3
450.6 K, Liquid, Constant volume piezo-calorimeter | 441.5 ± 0.2 kg/m3
450.77 K, Liquid, Constant volume piezo-calorimeter | 440.8 ± 0.2 kg/m3
459.61 K, Liquid, Constant volume piezo-calorimeter | 394.8 ± 0.2 kg/m3
464.79 K, Liquid, Constant volume piezo-calorimeter | 348.2 ± 0.3 kg/m3
466.12 K, Gas, constant volume piezo-calorimeter | 212.6 ± 0.6 kg/m3
466.47 K, Liquid, Constant volume piezo-calorimeter | 310.8 ± 0.8 kg/m3
466.66 K, Gas, constant volume piezo-calorimeter | 233.7 ± 0.8 kg/m3
466.75 K, Liquid, Constant volume piezo-calorimeter | 296.7 ± 0.8 kg/m3
466.8 K, Liquid, Constant volume piezo-calorimeter | 288.3 ± 1.1 kg/m3
466.81 K, Liquid, Constant volume piezo-calorimeter | 278.7 ± 1.5 kg/m3 and 275.7 ± 1.6 kg/m3
466.82 K, Gas, constant volume piezo-calorimeter | 255 ± 1.9 kg/m3
466.83 K, Gas, constant volume piezo-calorimeter | 260.7 ± 2.3 kg/m3
466.85 K, Gas, constant volume piezo-calorimeter | 261.2 ± 2.2 kg/m3
